Measured values: patent US20230372542A1, “COMPOSITION AND METHODS FOR MODULATING TCF4 GENE EXPESSION AND TREATING PITT HOPKINS SYNDROME” (The Regents of the University of California, priority 2020, published 2023)

Columns and labels:
NPCs = test: NPC proliferation (live cell count, EdU) after Wnt signaling manipulation; format: cell-based, human
Procedure: Proliferation and apoptosis assays.
Wnt signaling manipulation. For manipulating the Wnt/β-catenin signaling pathway in NPCs, 200,000 cells were seeded on a 6-well plate, followed by treatment with specific agonist CHIR99021 (1 μM) for 4 days. Controls were treated with DMSO (CHIR diluent) at the same concentration and for the same duration. […] In all cases, treated cells were assayed to measure activity of the Wnt pathway via transfection with the TOP-Flash plasmids described herein.

[1] = tested on: Wnt/β-catenin signaling pathway; test: TOP-Flash luciferase reporter Wnt functional assay in NPCs; format: cell-based, human; settings: PTHS NPCs; CHIR99021 (FIG. 16D)
Description: TOP-Flash luciferase reporter Wnt functional assay. For assessing levels of Wnt signaling, 70% confluent cultures of NPCs in 24-well plates (with Neural Progenitor Medium from StemCell Technologies) were transfected with the M50 Super 8×TOPFlash plasmid (Addgene #12456; [http:/]/n2t.net/addgene:12456; RRID:Addgene_12456; referred to as TOP-Flash luciferase reporter plasmid), which is used to assess β-catenin-mediated transcriptional activation. This plasmid contains a minimal TA viral promoter driving the expression of a firefly luciferase gene preceded by seven binding sites ([…]; SEQ ID NO:1) for TCF/LEF (Veeman et al., 2003), not to be confused with TCF4. Control NPCs were transfected with M51 Super8×TOPflash plasmids, which have mutant TCF/LEF binding sites (Addgene plasmid #12457; [http:/]/n2t.net/addgene:12457; RRID:Addgene_12457).
Transfection was performed using the Amaxa Nucleofaction Mouse Neural Stem Cell Nucleofector kit for NPCs (Lonza), using the manufacturer's recommendations. After 24 h, medium was replenished and the luciferase assay was performed using the Pierce Firefly Luciferase Flash Assay Kit (Thermo Fisher Scientific) on a sample of 50,000 cells, using a Synergy microplate reader (BioTek Instruments). […] Activity levels were expressed as arbitrary units normalized against the mean activity in the respective controls. […]

## Cc1c[nH]c(-c2cnc(NCCNc3ccc(C#N)cn3)nc2-c2ccc(Cl)cc2Cl)n1 [CHIR99021]
NPCs; PTHS NPCs, CHIR99021 1 μM, 4 days (FIGS. 9G-H)
  proliferation rates: rescued the proliferation rates
NPCs; parent NPCs in 2D culture, CHIR (FIGS. 9G-H)
  proliferation: does not lead to increased proliferation
[1]
  Wnt signaling activity (TOP-Flash): increased
